# Results: ChEMBL document CHEMBL1150244, “Periglaucines A-D, anti-HBV and -HIV-1 alkaloids from Pericampylus glaucus” (J Nat Prod, 2008)
# Tests used:
# [1] = tested on: Human immunodeficiency virus 1; test: Antiviral activity against HIV1 in human C8166 cells assessed as protection against viral-induced cytopathic effect by syncytium reduction assay; assay type: functional, organism-based; conditions: Human immunodeficiency virus 1, C8166
# [2] = Selectivity index, ratio of CC50 for human HepG2.2.15 cells to IC50 for HBV e-antigen secretion; assay type: functional
# [3] = Cytotoxicity against human HepG2.2.15 cells by MTT assay; assay type: cell-based, HepG2 2.2.15
# Hepatitis B virus [4] = test: Antiviral activity against HBV assessed as inhibition of viral surface antigen secretion in HepG2.2.15 cells by ELISA; assay type: functional, organism-based; conditions: HepG2 2.2.15
# Hepatitis B virus [5] = test: Antiviral activity against HBV assessed as inhibition of viral e-antigen secretion in HepG2.2.15 cells by ELISA; assay type: functional, organism-based; conditions: HepG2 2.2.15
# [6] = Selectivity index, ratio of CC50 for human HepG2.2.15 cells to IC50 for HBV surface antigen secretion; assay type: functional
# [7] = Cytotoxicity against human C8166 cells after 72 hrs by MTT assay; assay type: cell-based
# [8] = Selectivity index, ratio of CC50 for human C8166 cells to EC50 for HIV1; assay type: toxicity, cell-based; conditions: read-out: Ratio CC50/EC50
EC50 [1],IC50 (Hepatitis B virus [4]),IC50 (Hepatitis B virus [5]),SMILES,Ratio CC50/IC50 [2],CC50 [3],Ratio CC50/IC50 [6],CC50 at 72 h [7],selectivity ratio [8]
14.1 µM,140 µM,> 7.47 mM,COc1cc2c(cc1OC)[C@@H]1Cc3ccc(OC)c(OC)c3C(=O)N1CC2,<1,3 mM,22.4,307 µM,18.8
–,> 3400 µM,> 3.4 mM,COc1ccc2c(c1OC)C(=O)N1CCc3cc4c(cc3[C@@H]1C2)OCO4,–,> 3.4 mM,–,–,–
10.9 µM,930 µM,> 3.88 mM,COc1c(OC)c2c3c(nccc3c1OC)-c1cc(O)ccc1-2 [IMERUBRINE],–,> 3.88 mM,>4.17,493 µM,45.7
162 µM,1720 µM,> 3.69 mM,CO[C@@H]1C(=O)C[C@]23CC(=O)N(C)[C@@]24C[C@@H](O[C@]14OC)c1cc2c(cc13)OCO2 [PERIGLAUCINE C],<1,2.36 mM,1.37,> 516 µM,3.29
334 µM,670 µM,3.01 mM,CO[C@@H]1C(=O)C[C@]23C[C@H](CC(C)=O)N(C)[C@@]24C[C@@H](O[C@]14OC)c1cc2c(cc13)OCO2 [PERIGLAUCINE D],<1,2.06 mM,3.07,> 466 µM,1.65
0.0108 µM,–,–,Cc1cn([C@H]2C[C@H](N=[N+]=[N-])[C@@H](CO)O2)c(=O)[nH]c1=O [ZIDOVUDINE],–,–,–,–,471

SMILES,EC50 [1],IC50 (Hepatitis B virus [4]),IC50 (Hepatitis B virus [5]),Ratio CC50/IC50 [2],CC50 [3],Ratio CC50/IC50 [6],CC50 at 72 h [7],selectivity ratio [8]
CO[C@@H]1C(=O)C[C@]23CCN(C)[C@@]24C[C@@H](O[C@]14OC)c1cc2c(cc13)OCO2 [PERIGLAUCINE A],204 µM,1040 µM,3.41 mM,<1,2.96 mM,2.85,> 536 µM,4.03
CO[C@H]1C(=O)C[C@]23CCN(C)[C@@]24C[C@@H](O[C@]14OC)c1cc2c(cc13)OCO2 [PERIGLAUCINE B],389 µM,470 µM,3.09 mM,<1,0.64 mM,1.36,> 536 µM,1.61
